Test results as given in PubChem BioAssay (NCI).
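Protocol summary: plate cells (96-well), add compound at 5 concentrations, incubate 48 h, interpolate endpoints linearly. TGI: total growth inhibition.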

Columns and labels:
Test in all cases: DTP human tumour cell line panel, 48 h
COLO 205 colon = system: COLO 205 colon
HCC-2998 colon = system: HCC-2998 colon
LOX IMVI melanoma = system: LOX IMVI melanoma
NCI-H226 lung = system: NCI-H226 lung
NCI-H23 lung = system: NCI-H23 lung
NCI/ADR-RES ovarian = system: NCI/ADR-RES ovarian
OVCAR-4 ovarian = system: OVCAR-4 ovarian
OVCAR-8 ovarian = system: OVCAR-8 ovarian
SF-539 CNS = system: SF-539 CNS
UO-31 renal = system: UO-31 renal

Row | Compound | TGI (COLO 205 colon) [µM] | TGI (HCC-2998 colon) [µM] | TGI (LOX IMVI melanoma) [µM] | TGI (NCI-H226 lung) [µM] | TGI (NCI-H23 lung) [µM] | TGI (NCI/ADR-RES ovarian) [µM] | TGI (OVCAR-4 ovarian) [µM] | TGI (OVCAR-8 ovarian) [µM] | TGI (SF-539 CNS) [µM] | TGI (UO-31 renal) [µM]
1 | CC(=O)Nc1ccc(CNc2cc(=O)[nH]c(=O)[nH]2)cc1 | > 100 | > 100 | > 100 | > 100 | > 100 | > 100 | > 100 | > 100 | > 100 | > 100
2 | CC(NS(C)(=O)=O)c1ccccc1 (stereo not given) | > 100 | > 100 | > 100 | > 100 | > 100 | > 100 | > 100 | > 100 | > 100 | > 100
3 | c1ccc(N=C2SC(=NNc3ccccc3)SC2=Nc2ccccc2)cc1 | > 100 | > 100 | > 100 | > 100 | > 100 | > 100 | > 100 | > 100 | > 100 | > 100
4 | NC1C/C(=N\O)c2c(I)sc(I)c21 (stereo not given) | 40.6 | 38.5 | 15.6 | 34.1 | 30.2 | 43.1 | > 64.9 | 29.1 | 20.3 | 30.1
5 | C=C=C(C)[Si](C)(C)C | > 100 | > 100 | > 100 | > 100 | > 100 | > 100 | > 100 | > 100 | > 100 | > 100
6 | Nc1nc(Cl)cc(NCC2(CO)CCC(Cc3ccccc3)C2)n1 (stereo not given) | 28.6 | > 100 | 37.4 | 98.7 | 72.3 | > 100 | > 100 | > 100 | > 100 | > 92.6
7 | CC(C)(C)c1ccc(CN2CCN(C(c3ccccc3)c3ccc(Cl)cc3)CC2)cc1 (stereo not given) | > 100 | 89.4 | > 100 | 62.2 | > 100 | > 100 | > 100 | > 100 | > 100 | > 100
8 | O=C(Cn1nc(Br)c(Br)c1Br)c1ccccc1 | 36.9 | > 100 | 32.2 | 63.5 | 94.3 | 93.1 | > 100 | > 100 | 45.1 | 57
9 | CC(=O)OC1CC2CCC1(C)C2(C)C (stereo not given) | > 100 | > 100 | > 100 | > 100 | > 100 | > 100 | > 100 | > 100 | > 100 | > 100
10 | CC(=O)O[C@H]1C[C@]2(C)C(CCC3O[C@@]32C)[C@@]2(CC(c3ccoc3)OC2O)[C@@H]1C (stereo not given in full) | > 100 | > 100 | > 100 | > 100 | > 100 | > 100 | > 100 | > 100 | > 100 | > 100
11 | Cc1cc(N(CCC#N)CCC#N)ccc1/C(N=Nc1cccc([N+](=O)[O-])c1)=N/NC(=O)c1cc(Cl)ccc1O | 38.8 | 93.4 | 49.3 | > 100 | 64.1 | > 100 | 92.2 | > 100 | > 100 | 70.8
12 | CCCN1C(=O)CCC2=C1CCc1c2ccc(Cl)c1Cl | > 100 | 49.8 | > 100 | > 100 | > 100 | > 100 | > 100 | > 100 | 95.4 | > 100
13 | C1COC(NC(C2CC2)C2CC2)=N1 | > 100 | > 100 | > 100 | > 100 | > 100 | > 100 | > 100 | > 100 | > 100 | > 100
14 | O=P(O)(O)C(CSc1ccccc1)P(=O)(O)O | > 100 | > 100 | > 100 | > 100 | > 100 | > 100 | > 100 | > 100 | > 100 | > 100
15 | COC(=O)CC1(CNC(=O)OCc2ccccc2)OCCO1 | > 100 | > 100 | > 100 | > 100 | > 100 | > 100 | > 100 | > 100 | > 100 | > 100
16 | O=C1CCCc2c1c1c(n2Cc2ccccc2)-c2ccccc2C1=O | 42.8 | 30.3 | 39.5 | 66.1 | 32.1 | 50.1 | 36.5 | 34 | 48.6 | > 100
17 | CC(=O)OCC1OC(n2c(N)c(C#N)c(-c3ccccc3)c(C#N)c2=S)C(OC(C)=O)C(OC(C)=O)C1OC(C)=O (stereo not given) | > 100 | > 100 | > 100 | > 100 | > 100 | > 100 | > 100 | > 100 | > 100 | > 100
18 | O=C1C2C=CC1C1C(=O)OC(=O)C21 (stereo not given) | > 100 | > 100 | > 100 | > 100 | > 100 | > 100 | > 100 | > 100 | > 100 | > 100
